In US6649797B2, “Compounds and methods of use to treat infectious diseases” (The Picower Institute for Medical Research, priority 1996, dated 2003):

How the values were obtained:
[1] = molecular target: T1, recombinant RT (p51/p66 heterodimer) (Human immunodeficiency virus type 1 group M subtype B, UniProt P04585); assay: Binding of [14C]-CNI-H0294 to recombinant RT in solution (immunoprecipitation); set-up: species or system HIV-1; settings: 0.2 μM RT, 3.3 μM labeled CNI-H0294, increasing unlabeled compound
T1 construct: recombinant MA or RT (a p51/p66 heterodimer)
Protocol: Twenty nmol of [^14C]-CNI-HO294 were mixed with 0.28 nmol of recombinant MA or RT (a p51/p66 heterodimer) in 40 μl of binding buffer. Samples were incubated for 2 h at 37° C. in the presence or absence of 200 nmol of unlabeled CNI-H0294. MA and RT proteins were immunoprecipitated using protein G agarose and sheep polyclonal anti-MA (αMA) or rabbit anti-RT (αRT) sera, respectively. Pre-immune sera (PI) was used as control. Bound material was eluted from protein G using 0.1 M glycine buffer [pH 2.8] and the radioactivity in the eluate was quantified in a scintillation counter.
Recombinant RT (0.2 μM) was incubated with 3.3 μM of [^14C ]-labeled CNI-H0294 and increasing concentrations of unlabeled (cold) CNI-3094. The amount of [^14C]-CNI-H0294 that bound to RT was measured as in FIG. 11.
0.28 nanomoles of recombinant MA or RT [p66/p51 ] dimer were mixed with 20 nmol of [^14C] CNI-HO294 (specific activity 5×10^4 cpm/nmol) and incubated 2 hr at room temperature in 40 μl of binding buffer (PBS supplemented with 1% BSA, 0.1% Tween 20, 1 μg/ml leupeptin, 1 μg/ml aprotinin, 1 mM PMSF). Sheep anti-MA or rabbit anti-RT sera (both obtained from NIH AIDS Research and Reference Reagent Program) or pre-immune control sera were then added (at 1:100 dilution) and incubation continued for another 1 hr at room temperature. Immune complexes were precipitated with protein G-agarose, washed, and then eluted with 0.1 M glycine, pH 2.8. Radioactivity of the eluate was measured in a scintillation counter.

[2] = tested on: HIV-1 pre-integration complexes / karyopherin α; assay: Binding of HIV-1 pre-integration complexes to GST-karyopherin α; type: biochemical
Protocol: Cytoplasmic lysates of H9 cells infected with HIV-1RF (upper panel) or HIV-like pseudovirions (bottom panel) were treated for 2 hours with various concentrations of CNI-H0294, and were then mixed with GST-karyopherin α immobilized on glutathione Sepharose beads. HIV-1 DNA or RNA that co-precipitated with karyopherin α was quantified as in A and B.
Cytoplasmic lysates prepared from H9 cells infected with HIV-1RF were treated with 10 μM CNI-H3094 (lane 1) or with 1 μM CNI-H0294 and 10 μM (lane 5), 5 μM (lane 4), 1 μM (lane 3), or no CNI-H3094 (lane 2). The amount of pre-integration complexes available for interaction with karyopherin α was quantified as in FIG. 10.
H9 cells were infected with equal amounts of wild-type HIV-1NLHX or with mutant HIV-1NLHX that lack Vpr (Vpr^−) or carry a mutation that inactivates the MA NLS (MA NLS^−). Infected cells were washed and incubated for 4 h. An aliquot of each sample was used to quantify the total HIV-1 DNA (FIG. 14A) and the rest was used to prepare cytoplasmic extracts. Extracts were incubated with 1 μM CNI-H0294 (FIG. 14B, lanes 2, 4, 6, 8) or were left untreated (lanes 1, 3, 5, 7). The amount of pre-integration complexes available for binding to karyopherin α was determined as in FIG. 10.
H9 cells were infected with HIV-1 or HIV-like pseudovirions (Haffar, et al., 1990, J. Virol., 64:2653-2659) at a multiplicity adjusted according to p24 content (50 ng p24 per 10^6 cells) The MA NLS^− virus contains substitutions of isoleucine residues for lysines in positions 26 and 27 of MA in an NLHX backbone (Westervelt., et al., 1992, J. Virol. 66:2577-2582), thus inactivating the NLS. The Vpr^− virus has the initiating ATG of the vpr gene changed to GTG, thus abolishing expression of this gene. The ΔMA NLS pseudovirions have leucine substituting for lysine in position 28 of MA. This mutation abrogates nuclear translocation of HIV-1 gag RNA in growth-arrested H9 cells infected with pseudovirions. After a 1 hour absorption, excess viruses or pseudovirions were washed away, and cells were incubated for an additional 2-3 hour period at 37° C. prior to analysis.
Cytoplasmic extracts were prepared by lysing cells in cold extraction buffer (10 mM KCl, 10 mM Tris-HCl [pH 7.6], 0.5 mM MgCl2, 1 μg/ml each of leupeptin and aprotinin, and 1 MM phenylmethylsulfonyl fluoride [PMSF]) by 20-30 strokes of a Dounce homogenizer under the control of phase-contrast microscopy. After removal of nuclei, cytoplasmic extract was cleared by centrifugation at 15,000 g for 10 min.
Cytoplasmic extracts prepared from HIV-1-or pseudovirion-infected H9 cells were adjusted to 0.14 M NaCl, 0.1% Tween 20 and precleared with glutathione-Sepharose beads for 30 min. at room temperature. Karyopherin α was expressed as a fusion protein with glutathione S-transferase (GST) which can bind glutathione beads in solution. GST-karyopherin α immobilized on Sepharose beads was then added (about 50 μg of immobilized karyopherin α per extract from 108 infected cells) and the mixture was incubated at room temperature for another 30 min. Beads were then pelleted by centrifugation and washed 3 times with PBS supplemented with 0.1% Tween 20, 1 μg/ml each of leupeptin and aprotinin, and 1 mM PMSF. HIV-1 DNA was isolated from the beads by SDS-proteinase K treatment with subsequent phenol-chloroform extraction, while pseudovirion gag RNA was isolated by RNazol (Biotecx Laboratories Inc.).

[3] = tested on: HIV-1ADA; assay: Anti-HIV activity in primary human monocytes, day 9 (Table IX, FIG. 12C); type: cell-based
Protocol: Monocytes infected with HIV-1ADA were cultured in the presence of CNI-H0294 and CNI-H3094 in various concentrations. Nine days after infection, RT activity in culture supernatants was quantified. The results are presented as percent of total RT activity in untreated cultures (control). Three independent samples were assayed for each drug concentration, and the standard deviation was less than 15%.
[…] A 50% inhibitory concentration (IC50) was determined at day 9 after infection.

For `COC(=O)c1cc(Nc2cc(C)nc(N)n2)cc(C(=O)OC)c1` [CNI-H3094], the “competition with [14C]-labeled CNI-H0294 for binding to RT” value [1] was “inhibits binding of [^14C]-labeled CNI-H0294 to RT in a dose-dependent manner”, the “inhibition of binding of HIV-1 pre-integration complexes to karyopherin α” value ([2]; 10 μM alone (FIG. 12B, lane 1)) was “did not inhibit” and the “effect on CNI-H0294 inhibition of pre-integration complex binding to karyopherin α” value ([2]; 5-fold excess over 1 μM CNI-H0294) was “reduced significantly the inhibitory effect of CNI-H0294”. For the same compound, the “effect on CNI-H0294 inhibition of pre-integration complex binding to karyopherin α” value ([2]; 10-fold excess over 1 μM CNI-H0294) was “completely eliminated the inhibitory effect”, the IC50 ([3]; Human immunodeficiency virus 1, Monocyte, 216 h, day 9 after infection, >10 μM = 50% inhibition not achieved at maximal concentration, read-out: IC50) was greater than 10 µM and the “effect on anti-HIV activity of CNI-H0294 in monocyte cultures” value ([3]; RT activity nine days after infection (FIG. 12C)) was “eliminated the inhibitory effect of CNI-H0294 on HIV-1 replication”.
